Assay results: patent US20100298141A1, “SUBSTITUTED PYRIDINE N-OXIDE HERBICIDES” (E. I. DU PONT DE NEMOURS AND COMPANY, priority 2007, published 2010)

Assays:
[1] = system: barnyardgrass; test: Test A pre-/postemergence greenhouse test; type: in vivo, Echinochloa crus-galli; conditions: for Plant response rating, Barnyardgrass: 0 to 100 scale where 0 is no effect and 100 is complete control; for Barnyardgrass plant response rating: 0 to 100 scale
Outline: (§1)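 Sowing in loam/sand; same-day pre (directed soil spray) and post (foliar, 1–2 leaf, 2–10 cm) treatment with surfactant-containing non-phytotoxic solvent formulation; ~10 days in greenhouse; eye-scored injury against untreated plants.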

[2] = system: giant foxtail; test: Test A pre-/postemergence greenhouse test; type: in vivo, Setaria faberi; conditions: for Plant response rating, Foxtail, Giant: 0 to 100 scale where 0 is no effect and 100 is complete control; for Foxtail, Giant plant response rating: 0 to 100 scale
Outline: as §1

[3] = system: morningglory; test: Test A pre-/postemergence greenhouse test; type: in vivo, Ipomoea spp.; conditions: for Plant response rating, Morningglory: 0 to 100 scale where 0 is no effect and 100 is complete control; for Morningglory plant response rating: 0 to 100 scale
Outline: as §1

[4] = system: redroot pigweed; test: Test A pre-/postemergence greenhouse test; type: in vivo, Amaranthus retroflexus; conditions: for Plant response rating, Pigweed: 0 to 100 scale where 0 is no effect and 100 is complete control; for Pigweed plant response rating: 0 to 100 scale
Outline: as §1

[5] = system: wheat; test: Test A pre-/postemergence greenhouse test; type: in vivo, Triticum aestivum; conditions: for Plant response rating, Wheat: 0 to 100 scale where 0 is no effect and 100 is complete control; for Wheat plant response rating: 0 to 100 scale
Outline: as §1

[6] = system: corn; test: Test A pre-/postemergence greenhouse test; type: in vivo, Zea mays; conditions: for Plant response rating, Corn: 0 to 100 scale where 0 is no effect and 100 is complete control; for Corn plant response rating: 0 to 100 scale
Outline: as §1

[7] = system: wheat; test: Test C pre-/postemergence test; type: in vivo, Triticum aestivum; conditions: for Plant response rating, Wheat: 31 g ai/ha, scale 0 to 100 (0 no effect, 100 complete control)
Outline: (§2)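 Seeds were planted and treated preemergence with test chemical in a non-phytotoxic solvent mixture containing surfactant. Postemergence applications of the same formulation went onto plants 2 to 18 cm tall (1- to 4-leaf stage). A dash marks no test result.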

[8] = system: bermudagrass; test: Test C pre-/postemergence test; type: in vivo, Cynodon dactylon; conditions: for Plant response rating, Bermudagrass: 31 g ai/ha
Outline: as §2

[9] = system: Surinam grass; test: Test C pre-/postemergence test; type: in vivo, Brachiaria decumbens; conditions: for Plant response rating, Surinam Grass: 31 g ai/ha, scale 0 to 100 (0 no effect, 100 complete control)
Outline: as §2

[10] = system: crabgrass; test: Test C pre-/postemergence test; type: in vivo, Digitaria sanguinalis; conditions: for Plant response rating, Crabgrass, Large: 31 g ai/ha, scale 0 to 100 (0 no effect, 100 complete control)
Outline: as §2

[11] = system: Goosegrass; test: Test C pre-/postemergence test; type: in vivo, Eleusin indica; conditions: for Plant response rating, Goosegrass: 31 g ai/ha, scale 0 to 100 (0 no effect, 100 complete control)
Outline: as §2

[12] = system: lambsquarters; test: Test C pre-/postemergence test; type: in vivo, Chenopodium album; conditions: for Plant response rating, Lambsquarters: 31 g ai/ha, scale 0 to 100 (0 no effect, 100 complete control)
Outline: as §2

[13] = system: eastern black nightshade; test: Test C pre-/postemergence test; type: in vivo, Solanum ptycanthum; conditions: for Plant response rating, Nightshade: 31 g ai/ha, scale 0 to 100 (0 no effect, 100 complete control)
Outline: as §2

[14] = system: pigweed; test: Test C pre-/postemergence test; type: in vivo, Amaranthus retroflexus; conditions: for Plant response rating, Pigweed: 31 g ai/ha, scale 0 to 100 (0 no effect, 100 complete control)
Outline: as §2

[15] = system: common (oilseed) sunflower; test: Test C pre-/postemergence test; type: in vivo, Helianthus annuus; conditions: for Plant response rating, Sunflower: 31 g ai/ha, scale 0 to 100 (0 no effect, 100 complete control)
Outline: as §2

[16] = system: rice; test: Test C flooded paddy test; type: in vivo, Oryza sativa; conditions: Flood
Outline: (§3)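 In-water treatment: compound dosed into 3 cm flood over soil, water level unchanged throughout. Controls run alongside; visual assessment at day 13–15.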

[17] = system: umbrella sedge; test: Test C flooded paddy test; type: in vivo, Cyperus difformis; conditions: Flood
Outline: as §3

[18] = Postemergence, 500 g ai/ha, 0 is no effect, 100 is complete control
[19] = Preemergence, 125 g ai/ha, 0 no effect, 100 complete control
[20] = Preemergence, 500 g ai/ha, 0 no effect, 100 complete control
[21] = 62 g ai/ha, Preemergence, scale 0 to 100
[22] = 125 g ai/ha, preemergence, scale 0 (no effect) to 100 (complete control)
[23] = preemergence, 250 g ai/ha, scale 0 (no effect) to 100 (complete control)
[24] = 62 g ai/ha, Preemergence, scale 0 to 100 (0 no effect, 100 complete control)
[25] = Preemergence, scale 0 to 100 (0 no effect, 100 complete control)
[26] = 62 g ai/ha, scale 0 to 100 (0 no effect, 100 complete control)
[27] = 250 g ai/ha, scale 0 to 100, 0 no effect, 100 complete control, 13 to 15 days
[28] = Postemergence, 125 g ai/ha, 0 is no effect, 100 is complete control
[29] = 31 g ai/ha, scale 0 to 100 (0 no effect, 100 complete control)
[30] = 62 g ai/ha, scale 0 to 100, 0 no effect, 100 complete control, 13 to 15 days
[31] = 125 g ai/ha, scale 0 to 100, 0 no effect, 100 complete control, 13 to 15 days

Cc1cc[n+]([O-])c(S(=O)(=O)Cc2c(C(F)(F)C(F)(F)F)nn(C)c2OCC(F)(F)F)c1 [Compound 99]
Plant response rating, Barnyardgrass ([1]; Postemergence, 125 g ai/ha): 60 | Barnyardgrass plant response rating [1, 18]: 80 | Barnyardgrass plant response rating [1, 19]: 70 | Barnyardgrass plant response rating [1, 20]: 100 | Plant response rating, Foxtail, Giant ([2]; Postemergence, 125 g ai/ha): 70 | Foxtail, Giant plant response rating [2, 18]: 80 | Foxtail, Giant plant response rating [2, 19]: 90 | Foxtail, Giant plant response rating [2, 20]: 100 | Plant response rating, Morningglory ([3]; Postemergence, 125 g ai/ha): 40 | Morningglory plant response rating [3, 18]: 50 | Morningglory plant response rating [3, 19]: 50 | Morningglory plant response rating [3, 20]: 100 | Plant response rating, Pigweed ([4]; Postemergence, 125 g ai/ha): 10 | Pigweed plant response rating [4, 18]: 60 | Pigweed plant response rating [4, 19]: 100 | Pigweed plant response rating [4, 20]: 100 | Plant response rating, Wheat ([5]; Postemergence, 125 g ai/ha): 50 | Wheat plant response rating [5, 18]: 70 | Wheat plant response rating [5, 19]: 50 | Wheat plant response rating [5, 20]: 90 | Plant response rating, Corn ([6]; Postemergence, 125 g ai/ha): 40 | Corn plant response rating [6, 18]: 60 | Corn plant response rating [6, 19]: 0 | Corn plant response rating [6, 20]: 30 | Wheat plant response rating [7, 21]: 55 | Wheat plant response rating [7, 22]: 55 | Plant response rating, Wheat ([7]; Preemergence): 25 | Wheat plant response rating [7, 23]: 95 | Bermudagrass plant response rating [8, 24]: 100 | Bermudagrass plant response rating [8, 22]: 100 | Plant response rating, Bermudagrass [8, 25]: 85 | Bermudagrass plant response rating [8, 23]: 100 | Surinam Grass plant response rating [9, 21]: 75 | Surinam Grass plant response rating [9, 22]: 95 | Plant response rating, Surinam Grass ([9]; Preemergence): 0 | Surinam Grass plant response rating [9, 23]: 95 | Crabgrass, Large plant response rating [10, 21]: 100 | Crabgrass, Large plant response rating [10, 22]: 100 | Plant response rating, Crabgrass, Large ([10]; Preemergence): 80 | Crabgrass, Large plant response rating [10, 23]: 100 | Goosegrass plant response rating [11, 21]: 95 | Goosegrass plant response rating [11, 22]: 100 | Plant response rating, Goosegrass ([11]; Preemergence): 85 | Goosegrass plant response rating [11, 23]: 100 | Lambsquarters plant response rating [12, 21]: 100 | Lambsquarters plant response rating [12, 22]: 100 | Plant response rating, Lambsquarters ([12]; Preemergence): 100 | Lambsquarters plant response rating [12, 23]: 100 | Nightshade plant response rating [13, 21]: 98 | Nightshade plant response rating [13, 22]: 100 | Plant response rating, Nightshade ([13]; Preemergence): 90 | Nightshade plant response rating [13, 23]: 100 | Pigweed plant response rating [14, 21]: 100 | Pigweed plant response rating [14, 22]: 100 | Plant response rating, Pigweed ([14]; Preemergence): 100 | Pigweed plant response rating [14, 23]: 100 | Sunflower plant response rating [15, 21]: 30 | Sunflower plant response rating [15, 22]: 30 | Plant response rating, Sunflower ([15]; Preemergence): 30 | Sunflower plant response rating [15, 23]: 40 | Plant response rating, Rice [16, 26]: 0 | Plant response rating, Rice [16, 27]: 45 | Plant response rating, Sedge, Umbrella [17, 26]: 0 | Plant response rating, Sedge, Umbrella [17, 27]: 65

Cn1nc(C(F)(F)F)c(C[S+]([O-])c2cc(C(F)(F)F)cc[n+]2[O-])c1Cl (racemic) [Compound 34]
Barnyardgrass plant response rating [1, 28]: 40 | Barnyardgrass plant response rating [1, 18]: 60 | Barnyardgrass plant response rating [1, 19]: 80 | Plant response rating, Barnyardgrass ([1]; Preemergence, 500 g ai/ha): 100 | Foxtail, Giant plant response rating [2, 28]: 10 | Foxtail, Giant plant response rating [2, 18]: 60 | Foxtail, Giant plant response rating [2, 19]: 100 | Plant response rating, Foxtail, Giant ([2]; Preemergence, 500 g ai/ha): 100 | Morningglory plant response rating [3, 28]: 0 | Morningglory plant response rating [3, 18]: 30 | Morningglory plant response rating [3, 19]: 50 | Plant response rating, Morningglory ([3]; Preemergence, 500 g ai/ha): 80 | Pigweed plant response rating [4, 28]: 60 | Pigweed plant response rating [4, 18]: 70 | Pigweed plant response rating [4, 19]: 100 | Plant response rating, Pigweed ([4]; Preemergence, 500 g ai/ha): 100 | Wheat plant response rating [5, 28]: 0 | Wheat plant response rating [5, 18]: 0 | Wheat plant response rating [5, 19]: 30 | Plant response rating, Wheat ([5]; Preemergence, 500 g ai/ha): 50 | Corn plant response rating [6, 28]: 0 | Corn plant response rating [6, 18]: 20 | Corn plant response rating [6, 19]: 0 | Plant response rating, Corn ([6]; Preemergence, 500 g ai/ha): 0 | Wheat plant response rating [7, 21]: 10 | Plant response rating, Wheat ([7]; Preemergence): 0 | Bermudagrass plant response rating [8, 24]: 100 | Plant response rating, Bermudagrass [8, 25]: 75 | Plant response rating (0 to 100), Bermudagrass ([8]; Preemergence, 250 g ai/ha): 100 | Bermudagrass plant response rating ([8]; preemergence, 125 g ai/ha, scale 0 (no effect) to 100 (complete control)): 100 | Surinam Grass plant response rating [9, 21]: 0 | Plant response rating, Surinam Grass ([9]; Preemergence): 0 | Crabgrass, Large plant response rating [10, 21]: 100 | Plant response rating, Crabgrass, Large ([10]; Preemergence): 98 | Plant response rating (0 to 100), Crabgrass, Large ([10]; Preemergence, 250 g ai/ha): 100 | Goosegrass plant response rating [11, 21]: 98 | Plant response rating, Goosegrass ([11]; Preemergence): 98 | Plant response rating (0 to 100), Goosegrass ([11]; Preemergence, 250 g ai/ha): 100 | Lambsquarters plant response rating [12, 21]: 50 | Plant response rating, Lambsquarters ([12]; Preemergence): 0 | Nightshade plant response rating [13, 21]: 100 | Plant response rating, Nightshade ([13]; Preemergence): 85 | Pigweed plant response rating [14, 21]: 100 | Plant response rating, Pigweed ([14]; Preemergence): 100 | Sunflower plant response rating [15, 21]: 0 | Plant response rating, Sunflower ([15]; Preemergence): 0 | Plant response rating, Rice [16, 29]: 0 | Plant response rating, Rice [16, 30]: 0 | Plant response rating, Rice [16, 31]: 0 | Plant response rating, Rice [16, 27]: 40 | Plant response rating, Sedge, Umbrella [17, 29]: 0 | Plant response rating, Sedge, Umbrella [17, 30]: 85 | Plant response rating, Sedge, Umbrella [17, 31]: 85 | Plant response rating, Sedge, Umbrella [17, 27]: 90
